Measured values published in article PMC8954350, “Non-Canonical Cannabinoid Receptors with Distinct Binding and Signaling Properties in Prostate and Other Cancer Cell Types Mediate Cell Death” (International Journal of Molecular Sciences, 2022).
Where two headings read alike, the source gives them in different places.

Legend:
[1] = target: T1, canonical mouse CB1Rs (mouse brain) (Mus musculus, UniProt P47746); format: binding; conditions: 1 μM ligand, mouse brain membranes
T1 construct: membranes prepared from mouse brain containing a high density of mouse CB1 receptors (mCB1); from tissue; host or cells: mouse brain membrane homogenate
Procedure: (§1) The assay was conducted as previously detailed. […] All binding reactions were conducted in triplicate, in a final volume of 1 mL, and, following mixing, were incubated for 20 min in a 37 °C water bath to achieve equilibrium. After incubation, reactions were terminated by rapid vacuum filtration through Whatman GF/B glass fiber filters (Brandel; Gaithersburg, MD, USA), followed by three washes of 4 mls of ice-cold filtration buffer (50 mM Tris, pH 7.4, and 0.05% bovine serum albumin). Samples were punched out from filter papers into scintillation vials, to which 4 mls of ScintiverseTM-BDR cocktail scintillation fluid (Fisher Scientific; Hampton, NH, USA) was added. Filters were incubated at room temperature for 24 h in scintillation fluid, vortexed, and radioactivity (measured as DPMs) was quantified via a liquid scintillation spectrophotometer (Tri Carb 2100 TR Liquid Scintillation Analyzer, Packard Instruments, Meriden, CT, USA).

[2] = test system: CBRs expressed in C6-glioma cells; test: [^3H]CP-55,940 competitive binding screen, C6-glioma membranes; design: species or system mouse; conditions: 1 μM ligand, 0.2 nM radioligand
Procedure: as §1

[3] = test system: CBRs expressed in PC-12 cells; test: [^3H]CP-55,940 competitive binding screen, PC-12 membranes; design: species or system rat; conditions: 1 μM ligand, 0.2 nM radioligand
Procedure: as §1

[4] = test system: CBRs expressed in HeLa cells; test: [^3H]CP-55,940 competitive binding screen, HeLa membranes; design: species or system human; conditions: 1 μM ligand, 0.2 nM radioligand
Procedure: as §1

[5] = test system: CBRs expressed in PC-3 cells; test: [^3H]CP-55,940 competitive binding screen, PC-3 membranes; design: species or system human; conditions: 1 μM ligand, 0.2 nM radioligand
Procedure: as §1

[6] = test system: CBRs expressed in DU-145 cells; test: [^3H]CP-55,940 competitive binding screen, DU-145 membranes; design: species or system human; conditions: 1 μM ligand, 0.2 nM radioligand
Procedure: as §1

[7] = test system: CBRs expressed in C6-glioma cells; test: [^3H]WIN-55,212-2 competitive binding screen, C6-glioma membranes; design: species or system mouse; conditions: 1 μM ligand, 1 nM radioligand
Procedure: as §1

[8] = test system: CBRs expressed in PC-12 cells; test: [^3H]WIN-55,212-2 competitive binding screen, PC-12 membranes; design: species or system rat; conditions: 1 μM ligand, 1 nM radioligand
Procedure: as §1

[9] = test system: CBRs expressed in HeLa cells; test: [^3H]WIN-55,212-2 competitive binding screen, HeLa membranes; design: species or system human; conditions: 1 μM ligand, 1 nM radioligand
Procedure: as §1

[10] = test system: CBRs expressed in PC-3 membranes; test: [^3H]WIN-55,212-2 competitive binding screen, PC-3 membranes; design: species or system human
Procedure: as §1
(§2) These experiments were conducted to screen well-characterized cannabinoid ligands with high affinity for canonical CB1 and/or CB2Rs for binding to CBRs expressed in prostate cancer cells lines, as detailed in [33]. […] All binding reactions were conducted in triplicate, in a final volume of 1 mL, and, following mixing, were incubated for 20 min in a 37 °C water bath to achieve equilibrium. After incubation, reactions were terminated by rapid vacuum filtration and processed for radioactivity, as detailed in Section 4.5.1.

[11] = test system: CBRs expressed in DU-145 membranes; format: binding, human
Procedure: as §1, §2

[12] = test system: canonical human CB1Rs (CHO-hCB1); design: method as in PMID 34592231; conditions: 1 μM ligand, 0.2 nM radioligand, CHO-hCB1 membranes; cited from earlier work
[13] = test system: canonical human CB2Rs (CHO-hCB2); design: method as in PMID 34592231; conditions: 1 μM ligand, 0.2 nM radioligand, CHO-hCB2 membranes; cited from earlier work
[14] = test system: canonical human CB1Rs (CHO-hCB1); design: method as in PMID 34592231; conditions: 1 μM ligand, 1 nM radioligand, CHO-hCB1 membranes; cited from earlier work
[15] = test system: canonical human CB2Rs (CHO-hCB2); design: method as in PMID 34592231; conditions: 1 μM ligand, 1 nM radioligand, CHO-hCB2 membranes; cited from earlier work
[16] = target: T2, canonical CBRs stably expressed in CHO-hCB2 (Homo sapiens, UniProt P34972); test: [^35S]GTPγS binding, CHO-hCB2 homogenates; format: biochemical; conditions: 10 μM
T2 construct: expressed in transfected cells
Procedure: Non-specific binding was defined as radioactivity remaining in the presence of 10 μM of non-radioactive GTPγS and subtracted from total binding to determine specific [^35S]GTPγS binding. All binding reactions were conducted in triplicate, in a final volume of 1 mL, and, following mixing, were incubated for 30 min at 30 °C. After incubation, reactions were terminated by rapid vacuum filtration through Whatman GF/B glass fiber filters (Brandel; Gaithersburg, MD, USA), followed by three washes of 4 mls of ice-cold filtration buffer (50 mM Tris, pH 7.4, and 0.05% bovine serum albumin). Samples were punched out from filter papers into scintillation vials, to which 4 mls of ScintiverseTM-BDR cocktail scintillation fluid (Fisher Scientific; Hampton, NH, USA) was added. Filters were incubated at room temperature for 24 h in scintillation fluid, vortexed, and radioactivity (measured as DPMs) was determined via a liquid scintillation spectrophotometer (Tri Carb 2100 TR Liquid Scintillation Analyzer, Packard Instruments, Meriden, CT, USA).

[17] = target: T2, canonical CBRs stably expressed in CHO-hCB2; test: Adenylyl cyclase modulation in whole CHO-hCB2 cells; format: cell-based; conditions: 10 μM
Procedure: Growth media contained FetalPlex (10%) and 1% pennicillin/streptomycin. Cells were cultured overnight in a humidified incubator maintained at 37 °C with 5% CO2. For some experiments, a subset of wells were treated overnight with pertussis toxin (2 μL/mL) to abolish Gi/Go protein-mediated signaling. […] After [^3H]adenine incubation, media was replaced with 0.5 mL of a Krebs–Ringer–HEPES solution (10 mM HEPES, 110 mM NaCl, 25 mM Glucose, 55 mM Sucrose, 5 mM KCl, 1 mM MgCl2, and 1.8 mM CaCl2 at pH 7.4) containing 0.5 mM IBMX, 10 μM forskolin and a receptor-saturating concentration (10^−5 M) of cannabinoid ligands to be examined. Plates were then floated in a 37 °C water bath for 15 min, followed by termination of reactions by addition of 50 μL of 2.2 N HCl to each well. Then, [^3H]cAMP was isolated by alumina column chromatography and collection in a 4 mL elution volume. Finally, 10 mL of Scintiverse^TM BD Cocktail scintillation fluid (Fisher Scientific; Hampton, NH, USA) was added to eluates and radioactivity (quantified as DPMs) was quantified via a liquid scintillation spectrophotometer (Tri Carb 2100 TR Liquid Scintillation Analyzer, Packard Instruments, Meriden, CT, USA).

[18] = test system: DU-145 cells; test: LDH cytotoxicity, DU-145 cells; format: cell-based, human; conditions: 24 h
Procedure: DU-145 cells were seeded at a density of 130 × 10^3 cells/well in 6-well plates and maintained in an incubator at 37 °C with 5% CO2 for 24 h. […] Treated cells were incubated for an additional 24 h, followed by quantification of LDH release. LDH released from damaged or dying cells oxidizes lactate to produce NADH which then reacts with a water-soluble tetrazolium salt (WST) reagent to produce a yellow-colored product. The intensity of the yellow-colored product was detected with an OD reading at 450 nm (quantified by a BioTek microplate reader interfaced with SoftMax Pro 5.4.5 software; Winooski, VT, USA) and was directly proportional to the amount of LDH released. Percent cytotoxicity was calculated according to the manufacturer’s protocol as the following: % Cytotoxicity=OD450 Supernatant/Supernatant+Lysate

[19] = test system: DU-145 cells; test: ATP-dependent cell viability, DU-145 cells; format: cell-based, human; conditions: co-incubation with 10 μM ligand, 24 h
Procedure: Adenosine 5′-triphosphate (ATP) levels were quantified as a measure of DU-145 cell viability in response to cannabinoid treatement using an ATP-luciferase-based bioluminescence assay kit (CellTiter-Glo®, Sigma, MO, USA) and BioTek microplate reader (Winooski, VT, USA). DU-145 cells were seeded at a density of 8 × 10^3 cells/well in a 96-well plate and incubated for 24 h at 37 °C with 5% CO2. The next day, cells were treated with either vehicle or experimental drugs (10 or 50 μM) and incubated for another 24 h at 37 °C with 5% CO2. ATP levels were assessed following incubation by interpolation from an ATP standard curve according to the manufacturer’s protocol, as described previously.

[20] = test system: DU-145 cells; test: Mitochondrial membrane potential (JC-1 staining), DU-145 cells; format: cell-based, human; conditions: 24 h; for mitochondrial membrane potential (MMP) depolarization: JC-1

T1 sequence (P47746 whole entry): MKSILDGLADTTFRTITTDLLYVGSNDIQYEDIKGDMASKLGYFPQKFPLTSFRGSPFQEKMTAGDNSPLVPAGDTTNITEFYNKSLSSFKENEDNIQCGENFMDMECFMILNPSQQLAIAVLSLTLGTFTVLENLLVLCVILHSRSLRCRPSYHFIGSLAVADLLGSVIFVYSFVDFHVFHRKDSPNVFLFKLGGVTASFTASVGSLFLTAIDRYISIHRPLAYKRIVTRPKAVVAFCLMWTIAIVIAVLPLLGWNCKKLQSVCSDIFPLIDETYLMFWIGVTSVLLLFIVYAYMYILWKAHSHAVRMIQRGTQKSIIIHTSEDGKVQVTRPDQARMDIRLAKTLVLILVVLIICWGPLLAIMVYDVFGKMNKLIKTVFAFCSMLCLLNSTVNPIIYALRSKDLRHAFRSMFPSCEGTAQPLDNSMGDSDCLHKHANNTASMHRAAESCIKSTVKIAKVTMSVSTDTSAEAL
T2 sequence (P34972 whole entry): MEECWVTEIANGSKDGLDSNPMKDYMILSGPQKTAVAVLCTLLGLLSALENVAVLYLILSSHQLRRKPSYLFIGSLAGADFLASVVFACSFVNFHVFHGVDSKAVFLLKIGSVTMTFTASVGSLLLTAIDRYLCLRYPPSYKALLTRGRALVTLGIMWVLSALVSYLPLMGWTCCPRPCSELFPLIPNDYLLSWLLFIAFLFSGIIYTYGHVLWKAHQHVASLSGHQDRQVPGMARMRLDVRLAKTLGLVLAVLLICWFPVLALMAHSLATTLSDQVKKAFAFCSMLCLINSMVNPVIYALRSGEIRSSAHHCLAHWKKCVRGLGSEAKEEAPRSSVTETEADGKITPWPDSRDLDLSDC

In the case of `CCCCCCC(C)(C)c1ccc([C@@H]2C[C@H](O)CC[C@H]2CCCO)c(O)c1` [CP-55,940], the “displacement of [^3H]CP-55,940” value ([1]; 0.2 nM radioligand) is reported as “produced near or complete displacement”, the “displacement of [^3H]WIN-55,212-2 (Figure 1B)” value (from here on “displacement … (Figure 1B)”) ([1]; 1 nM radioligand) is reported as “produced near or complete displacement” and the “displacement of [^3H]CP-55,940” value [2] is reported as “neither the non-selective CBR ligand CP-55,940 nor WIN-55,212-2 produced significant displacement”. The “displacement of [^3H]CP-55,940” value [3] was “neither the non-selective CBR ligand CP-55,940 nor WIN-55,212-2 produced significant displacement”, the “displacement of [^3H]CP-55,940” value [4] was “neither the non-selective CBR ligand CP-55,940 nor WIN-55,212-2 produced significant displacement” and the “displacement of [^3H]CP-55,940” value [5] was “neither the non-selective CBR ligand CP-55,940 nor WIN-55,212-2 produced significant displacement”. The “displacement of [^3H]CP-55,940” value [6] was “neither the non-selective CBR ligand CP-55,940 nor WIN-55,212-2 produced significant displacement”, the “displacement … (Figure 1B)” value [7] was “only WIN-55,212-2, and not CP-55,940, significantly displaced” and the “displacement … (Figure 1B)” value [8] was “only WIN-55,212-2, and not CP-55,940, significantly displaced”. The “displacement … (Figure 1B)” value [9] was “only WIN-55,212-2, and not CP-55,940, significantly displaced”, the “displacement of [^3H]WIN-55,212-2” value [10] was “only WIN-55,212-2, and not CP-55,940, significantly displaced” and the “displacement of [^3H]WIN-55,212-2” value [11] was “only WIN-55,212-2, and not CP-55,940, significantly displaced”. For the same compound, the “displacement of [^3H]CP-55,940” value [12] was “produced near or complete displacement”, the “displacement of [^3H]CP-55,940” value [13] was “produced near or complete displacement” and the “displacement … (Figure 1B)” value [14] was “produced near or complete displacement”. The “displacement … (Figure 1B)” value [15] was “produced near or complete displacement”.
In the case of `COc1ccc(C(=O)c2c(C)n(CCN3CCOCC3)c3cc(I)ccc23)cc1` [AM-630], the “displacement of [^3H]WIN-55,212-2” value ([10]; 1 μM ligand, 1 nM radioligand, PC-3 membranes) is reported as “failed to displace”, the “displacement of [^3H]WIN-55,212-2” value [11] is reported as “failed to displace” and the “decrease in basal G protein activity ([^35S]GTPγS binding)” value [16] is reported as 26.15 ± 5.15%. For the same compound, the “enhancement of forskolin-stimulated intracellular cAMP levels” value [17] was 117 ± 27.1%, the LDH release ([18]; 10 μM) was “No significant effects” and the “increase in LDH release” value ([18]; 50 μM) was “neither low (10 μM) nor high (50 μM) concentrations of WIN-55,212-2, AM-251 or AM-630 altered LDH release”. For the same compound, the “attenuation of GW-405833 (50 μM)-induced LDH release” value ([18]; co-incubation with 10 μM ligand) was “significantly attenuated”, the “attenuation of GW-405833 (50 μM)-induced reduction in ATP concentrations” value [19] was “significantly attenuated” and the “MMP on co-incubation with GW-405833 (10 μM)” value ([20]; 10 μM ligand co-incubated) was “MMP was not significantly reduced from vehicle-treated levels”. For the same compound, the “mitochondrial membrane potential (MMP) depolarization” value ([20]; 10 μM) was “had no effect on MMP” and the “mitochondrial membrane potential (MMP) depolarization” value ([20]; 50 μM) was “had no effect on MMP”.
